target: T1, AhR (Homo sapiens, UniProt P35869); assay: In Vitro Assay 1: XRE-luciferase reporter assay, antagonism in human cell line (HepG2); settings: Assay 1: AhR-Luc Human Antagonism (IC50, nM), unmarked values: kynurenine 200 μM, 6 hours
T1 sequence (P35869 11-848): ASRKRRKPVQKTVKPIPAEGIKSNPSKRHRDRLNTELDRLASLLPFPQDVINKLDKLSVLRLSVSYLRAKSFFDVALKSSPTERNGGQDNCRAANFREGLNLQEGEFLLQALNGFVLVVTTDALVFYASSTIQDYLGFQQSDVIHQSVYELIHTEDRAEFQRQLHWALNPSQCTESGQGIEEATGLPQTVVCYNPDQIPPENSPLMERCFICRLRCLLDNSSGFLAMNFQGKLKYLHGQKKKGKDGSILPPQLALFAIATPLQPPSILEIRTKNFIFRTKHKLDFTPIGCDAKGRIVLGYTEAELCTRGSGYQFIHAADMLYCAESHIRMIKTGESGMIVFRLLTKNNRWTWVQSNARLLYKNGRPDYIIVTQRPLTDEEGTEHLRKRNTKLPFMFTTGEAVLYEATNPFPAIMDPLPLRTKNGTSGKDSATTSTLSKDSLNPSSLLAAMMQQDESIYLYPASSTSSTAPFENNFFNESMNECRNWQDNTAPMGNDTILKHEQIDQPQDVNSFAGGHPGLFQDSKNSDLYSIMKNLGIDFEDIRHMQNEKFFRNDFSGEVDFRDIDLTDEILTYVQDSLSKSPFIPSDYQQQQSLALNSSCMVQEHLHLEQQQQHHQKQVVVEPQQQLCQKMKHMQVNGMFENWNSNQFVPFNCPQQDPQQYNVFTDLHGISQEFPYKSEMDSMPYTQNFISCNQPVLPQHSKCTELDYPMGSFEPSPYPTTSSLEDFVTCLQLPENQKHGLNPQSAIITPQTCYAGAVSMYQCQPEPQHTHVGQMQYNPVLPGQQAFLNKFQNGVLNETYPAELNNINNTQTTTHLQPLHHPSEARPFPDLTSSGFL

| IC50 | Compound |
| --- | --- |
| 10 to 100 nM | CC(O)C(=O)NC1CCN(c2cc(-c3ccc(Cl)cc3)nc(-c3cccnc3)n2)CC1 (centres unmarked) [Example 237, N-(1-(6-(4-chlorophenyl)-2-(pyridin-3-yl)pyrimidin-4-yl)piperidin-4-yl)-2-hydroxypropanamide] |
| 10 to 100 nM | O=C(CO)NC1CCN(c2cc(-c3ccc(Cl)cc3)nc(-c3cccnc3)n2)CC1 [Example 238, N-(1-(6-(4-chlorophenyl)-2-(pyridin-3-yl)pyrimidin-4-yl)piperidin-4-yl)-2-hydroxyacetamide] |
| < 10 nM | OC[C@H]1CCN(c2cc(-c3ccc(Cl)cc3)nc(-c3cccnc3)n2)C1 [Example 240, (S)-(1-(6-(4-chlorophenyl)-2-(pyridin-3-yl)pyrimidin-4-yl)pyrrolidin-3-yl)methanol] |
| 10 to 100 nM | CC(=O)N[C@@H]1CN(c2cc(-c3ccc(Cl)cc3)nc(-c3cccnc3)n2)C[C@H]1O [Example 241, N-((3R,4R)-1-(6-(4-chlorophenyl)-2-(pyridin-3-yl)pyrimidin-4-yl)-4-hydroxypyrrolidin-3-yl)acetamide] |
| 10 to 100 nM | CC(=O)N[C@@H]1CN(c2cc(-c3ccc(Cl)cc3)nc(-c3cccnc3)n2)C[C@H]1OC(C)=O [Example 242, (3R,4R)-4-acetamido-1-(6-(4-chlorophenyl)-2-(pyridin-3-yl)pyrimidin-4-yl)pyrrolidin-3-yl acetate] |
| > 1000 nM | CC(=O)N[C@H]1CN(c2cc(-c3ccc(Cl)cc3)nc(-c3cccnc3)n2)C[C@H]1O [Example 244, N-((3S,4R)-1-(6-(4-chlorophenyl)-2-(pyridin-3-yl)pyrimidin-4-yl)-4-hydroxypyrrolidin-3-yl)acetamide] |
| 10 to 100 nM | CC(=O)N[C@H]1CN(c2cc(-c3ccc(Cl)cc3)nc(-c3cccnc3)n2)C[C@@H]1O [Example 245, N-((3S,4S)-1-(6-(4-chlorophenyl)-2-(pyridin-3-yl)pyrimidin-4-yl)-4-hydroxypyrrolidin-3-yl)acetamide] |
| 10 to 100 nM | OC[C@H]1CCN(c2cc(-c3ccc(Cl)cc3)nc(-c3cccnc3)n2)C[C@H]1O [Example 247, (3S,4R)-1-(6-(4-chlorophenyl)-2-(pyridin-3-yl)pyrimidin-4-yl)-4-(hydroxymethyl)piperidin-3-ol] |
| 10 to 100 nM | OC[C@H]1CCN(c2cc(-c3ccc(C(F)(F)F)cc3)nc(-c3cccnc3)n2)C[C@H]1O [Example 248, (3S,4R)-4-(hydroxymethyl)-1-(2-(pyridin-3-yl)-6-(4-(trifluoromethyl)phenyl)pyrimidin-4-yl)piperidin-3-ol] |
| 10 to 100 nM | OC[C@H]1CCN(c2cc(-c3ccc(Cl)cc3)nc(-c3cccnc3)n2)C[C@H]1F [Example 249, ((3S,4R)-1-(6-(4-chlorophenyl)-2-(pyridin-3-yl)pyrimidin-4-yl)-3-fluoropiperidin-4-yl)methanol] |
| < 10 nM | OC[C@H]1CCN(c2cc(-c3ccc(C(F)(F)F)cc3)nc(-c3cccnc3)n2)C[C@H]1F [Example 250, ((3S,4R)-3-fluoro-1-(2-(pyridin-3-yl)-6-(4-(trifluoromethyl)phenyl)pyrimidin-4-yl)piperidin-4-yl)methanol] |
| < 10 nM | OC[C@@H]1CCN(c2cc(-c3ccc(Cl)cc3)nc(-c3cccnc3)n2)C[C@@H]1F [Example 251, ((3R,4S)-1-(6-(4-chlorophenyl)-2-(pyridin-3-yl)pyrimidin-4-yl)-3-fluoropiperidin-4-yl)methanol] |
| < 10 nM | OC[C@@H]1CCN(c2cc(-c3ccc(C(F)(F)F)cc3)nc(-c3cccnc3)n2)C[C@@H]1F [Example 252, ((3R,4S)-3-fluoro-1-(2-(pyridin-3-yl)-6-(4-(trifluoromethyl)phenyl)pyrimidin-4-yl)piperidin-4-yl)methanol] |
| < 10 nM | OC[C@H]1CCN(c2cc(-c3ccc(Cl)cc3)nc(-c3cccnc3)n2)C[C@@H]1F [Example 253, ((3R,4R)-1-(6-(4-chlorophenyl)-2-(pyridin-3-yl)pyrimidin-4-yl)-3-fluoropiperidin-4-yl)methanol] |
| < 10 nM | OC[C@H]1CCN(c2cc(-c3ccc(C(F)(F)F)cc3)nc(-c3cccnc3)n2)C[C@@H]1F [Example 254, ((3R,4R)-3-fluoro-1-(2-(pyridin-3-yl)-6-(4-(trifluoromethyl)phenyl)pyrimidin-4-yl)piperidin-4-yl)methanol] |
| 10 to 100 nM | OC[C@H]1CN(c2cc(-c3ccc(Cl)cc3)nc(-c3cccnc3)n2)C[C@H]1O [Example 255, (3S,4R)-1-(6-(4-chlorophenyl)-2-(pyridin-3-yl)pyrimidin-4-yl)-4-(hydroxymethyl)pyrrolidin-3-ol] |

| IC50 | Compound |
| --- | --- |
| < 10 nM | OC[C@H]1CN(c2cc(-c3ccc(C(F)(F)F)cc3)nc(-c3cccnc3)n2)C[C@H]1O [Example 256, (3S,4R)-4-(hydroxymethyl)-1-(2-(pyridin-3-yl)-6-(4-(trifluoromethyl)phenyl)pyrimidin-4-yl)pyrrolidin-3-ol] |
| < 10 nM | OC[C@H]1CN(c2cc(-c3ccc(Cl)cc3)nc(-c3cccnc3)n2)C[C@@H]1O [Example 257, (3R,4R)-1-(6-(4-chlorophenyl)-2-(pyridin-3-yl)pyrimidin-4-yl)-4-(hydroxymethyl)pyrrolidin-3-ol] |
| < 10 nM | OC[C@H]1CCN(c2cc(-c3ccc(Cl)cc3)nc(-c3cccnc3)n2)C[C@@H]1O [Example 259, (3R,4R)-1-(6-(4-chlorophenyl)-2-(pyridin-3-yl)pyrimidin-4-yl)-4-(hydroxymethyl)piperidin-3-ol] |
| < 10 nM | OC[C@@H]1CCN(c2cc(-c3ccc(Cl)cc3)nc(-c3cccnc3)n2)C[C@H]1O [Example 261, (3S,4S)-1-(6-(4-chlorophenyl)-2-(pyridin-3-yl)pyrimidin-4-yl)-4-(hydroxymethyl)piperidin-3-ol] |
| < 10 nM | Cc1ccncc1-c1nc(-c2ccc(C(F)(F)F)cc2)cc(N2CC[C@H](O)C2)n1 [Example 263, (S)-1-(2-(4-methylpyridin-3-yl)-6-(4-(trifluoromethyl)phenyl)pyrimidin-4-yl)pyrrolidin-3-ol] |
| 10 to 100 nM | OC[C@@H]1CCN(c2cc(-c3ccc(Cl)cc3)nc(-c3cccnc3)n2)C[C@@H]1O [Example 264, (3R,4S)-1-(6-(4-chlorophenyl)-2-(pyridin-3-yl)pyrimidin-4-yl)-4-(hydroxymethyl)piperidin-3-ol] |
| < 10 nM | OC[C@@H]1CCN(c2cc(-c3ccc(C(F)(F)F)cc3)nc(-c3cccnc3)n2)C[C@@H]1O [Example 265, (3R,4S)-4-(hydroxymethyl)-1-(2-(pyridin-3-yl)-6-(4-(trifluoromethyl)phenyl)pyrimidin-4-yl)piperidin-3-ol] |
| < 10 nM | OC[C@@H]1CN(c2cc(-c3ccc(Cl)cc3)nc(-c3cccnc3)n2)C[C@H]1O [Example 266, (3S,4S)-1-(6-(4-chlorophenyl)-2-(pyridin-3-yl)pyrimidin-4-yl)-4-(hydroxymethyl)pyrrolidin-3-ol] |
| < 10 nM | OC[C@@H]1CN(c2cc(-c3ccc(C(F)(F)F)cc3)nc(-c3cccnc3)n2)C[C@H]1O [Example 267, (3S,4S)-4-(hydroxymethyl)-1-(2-(pyridin-3-yl)-6-(4-(trifluoromethyl)phenyl)pyrimidin-4-yl)pyrrolidin-3-ol] |
| < 10 nM | Cc1ncccc1-c1nc(-c2ccc(C(F)(F)F)cc2)cc(N2CC[C@H](O)C2)n1 [Example 269, (S)-1-(2-(2-methylpyridin-3-yl)-6-(4-(trifluoromethyl)phenyl)pyrimidin-4-yl)pyrrolidin-3-ol] |
| < 10 nM | Oc1ncccc1-c1nc(-c2ccc(C(F)(F)F)cc2)cc(N2CC[C@H](O)C2)n1 [Example 270, (S)-3-(4-(3-hydroxypyrrolidin-1-yl)-6-(4-(trifluoromethyl)phenyl)pyrimidin-2-yl)pyridin-2-ol] |
| < 10 nM | OCC1CCN(c2cc(-c3ccc(Cl)cc3O)nc(-c3cccnc3)n2)CC1 [Example 271, 5-chloro-2-(6-(4-(hydroxymethyl)piperidin-1-yl)-2-(pyridin-3-yl)pyrimidin-4-yl)phenol] |
| 10 to 100 nM | CC(C)(C)OC(=O)N1CCN(c2cc(-c3ccc(Cl)cc3)nc(-c3cccnc3)n2)C[C@H]1CO [Example 272, tert-butyl (S)-4-(6-(4-chlorophenyl)-2-(pyridin-3-yl)pyrimidin-4-yl)-2-(hydroxymethyl)piperazine-1-carboxylate] |
| > 1000 nM | CS(=O)(=O)Nc1ccc(-c2cc(N3CCC(CO)CC3)nc(-c3cccnc3)n2)cc1 [Example 274, N-(4-(6-(4-(hydroxymethyl)piperidin-1-yl)-2-(pyridin-3-yl)pyrimidin-4-yl)phenyl)methanesulfonamide] |
| 10 to 100 nM | CN1CCN(c2ccc(-c3cc(N4CCC(CO)CC4)nc(-c4cccnc4)n3)cc2)CC1 [Example 275, (1-(6-(4-(4-methylpiperazin-1-yl)phenyl)-2-(pyridin-3-yl)pyrimidin-4-yl)piperidin-4-yl)methanol] |
| 100 to 1000 nM | OCC1CCN(c2cc(-c3c(F)cc(F)cc3F)nc(-c3cccnc3)n2)CC1 [Example 277, (1-(2-(pyridin-3-yl)-6-(2,4,6-trifluorophenyl)pyrimidin-4-yl)piperidin-4-yl)methanol] |

From US20230150970A1, “AMINOPYRIMIDINE DERIVATIVES AND THEIR USE AS ARYL HYDROCARBON RECEPTOR MODULATORS” (DONG-A ST CO., LTD., priority 2020, published 2023)
